Laboratory results: PMC11278298, “Generation, Characterisation and Identification of Bioactive Peptides from Mesopelagic Fish Protein Hydrolysates Using In Silico and In Vitro Approaches” (Marine Drugs, 2024)
Residues, ends and D or L forms follow the SMILES beside them.

Assays:
[1] = target: T1, ovine COX-1 enzyme (Ovis aries, UniProt P05979); experiment: COX colourimetric inhibition screening assay, COX-1; format: biochemical; conditions: synthesised peptide
T1 construct: purchased Cayman Chemicals 701050
T1 sequence (P05979 25-600): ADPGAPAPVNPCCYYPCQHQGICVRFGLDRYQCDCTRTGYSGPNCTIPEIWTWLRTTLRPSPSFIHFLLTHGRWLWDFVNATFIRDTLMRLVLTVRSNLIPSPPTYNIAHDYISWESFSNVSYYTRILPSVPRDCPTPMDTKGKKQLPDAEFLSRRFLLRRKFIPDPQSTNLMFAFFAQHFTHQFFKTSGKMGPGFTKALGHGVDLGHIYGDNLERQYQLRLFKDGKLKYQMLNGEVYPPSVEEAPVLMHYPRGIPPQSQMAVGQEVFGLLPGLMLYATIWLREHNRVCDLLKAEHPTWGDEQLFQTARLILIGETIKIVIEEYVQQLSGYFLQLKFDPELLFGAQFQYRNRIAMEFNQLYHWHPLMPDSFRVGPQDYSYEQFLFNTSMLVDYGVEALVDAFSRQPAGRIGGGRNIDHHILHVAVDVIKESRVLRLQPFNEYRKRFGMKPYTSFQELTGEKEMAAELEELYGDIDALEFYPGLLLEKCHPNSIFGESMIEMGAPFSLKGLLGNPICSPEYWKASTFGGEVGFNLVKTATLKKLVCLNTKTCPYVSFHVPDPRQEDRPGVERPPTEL
Protocol: The anti-pain and anti-inflammatory bioactivities of generated mesopelagic hydrolysates and permeates were assessed using a cyclooxygenase inhibition assay, targeting human COX-2 and ovine COX-1 enzymes, as described previously. COX (Prostaglandin H synthase) inhibition plays a positive role in the prevention of a variety of health conditions, and COX inhibitors have documented analgesic, anti-inflammatory, and antipyretic properties. They can influence pain and inflammation related to diseases like osteoarthritis and rheumatoid arthritis, musculoskeletal injury, migraines, and cancer. COX inhibitors are indicated for mild pain and are usually prescribed for short durations of time to patients. […] COX inhibition was calculated using the following Equation:% COX inhibition = (Corrected 100% initial activity − Corrected Inhibitor activity)/(Corrected 100% initial activity) × 100(1) where Corrected 100% initial activity was the absorbance value recorded for wells containing 150 µL 1× assay Buffer, 10 µL of either COX-1 or COX-2 enzyme and 10 µL of solvent (DMSO) minus the absorbance value recorded for the background well containing 160 µL of 1× Assay Buffer and 10 µL of solvent.

[2] = target: T2, human COX-2 enzyme (Homo sapiens, UniProt P35354); experiment: COX colourimetric inhibition screening assay, COX-2; format: biochemical; conditions: for IC50 / inhibition at 1000 µg/mL: synthesised peptide; for inhibition at 1000 µg/mL: 1 mg/mL
T2 construct: purchased Cayman Chemicals 701050
T2 sequence (P35354 18-604): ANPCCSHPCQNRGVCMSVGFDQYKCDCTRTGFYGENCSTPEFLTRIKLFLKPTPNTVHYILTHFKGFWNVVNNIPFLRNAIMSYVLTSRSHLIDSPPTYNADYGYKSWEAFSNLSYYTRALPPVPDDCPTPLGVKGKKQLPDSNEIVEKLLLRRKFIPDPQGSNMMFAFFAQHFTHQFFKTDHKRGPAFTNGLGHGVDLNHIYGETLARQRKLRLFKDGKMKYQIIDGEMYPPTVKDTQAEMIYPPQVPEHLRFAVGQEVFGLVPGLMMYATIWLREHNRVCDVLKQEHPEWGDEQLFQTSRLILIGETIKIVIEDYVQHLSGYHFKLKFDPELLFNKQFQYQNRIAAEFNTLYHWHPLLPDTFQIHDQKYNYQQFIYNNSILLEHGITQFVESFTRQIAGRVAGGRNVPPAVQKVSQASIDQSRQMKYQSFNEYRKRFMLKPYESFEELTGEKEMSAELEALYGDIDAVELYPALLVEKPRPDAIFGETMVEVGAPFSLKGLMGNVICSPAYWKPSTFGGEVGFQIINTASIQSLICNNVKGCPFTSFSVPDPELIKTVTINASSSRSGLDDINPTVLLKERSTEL
Protocol: The anti-pain and anti-inflammatory bioactivities of generated mesopelagic hydrolysates and permeates were assessed using a cyclooxygenase inhibition assay, targeting human COX-2 and ovine COX-1 enzymes, as described previously. […] They can influence pain and inflammation related to diseases like osteoarthritis and rheumatoid arthritis, musculoskeletal injury, migraines, and cancer. COX inhibitors are indicated for mild pain and are usually prescribed for short durations of time to patients.

[3] = target: T3, MAGL enzyme (Homo sapiens, UniProt Q99685); experiment: Monoacylglycerol lipase inhibition screening assay; format: biochemical
T3 construct: purchased Cayman
T3 sequence (Q99685 1-303): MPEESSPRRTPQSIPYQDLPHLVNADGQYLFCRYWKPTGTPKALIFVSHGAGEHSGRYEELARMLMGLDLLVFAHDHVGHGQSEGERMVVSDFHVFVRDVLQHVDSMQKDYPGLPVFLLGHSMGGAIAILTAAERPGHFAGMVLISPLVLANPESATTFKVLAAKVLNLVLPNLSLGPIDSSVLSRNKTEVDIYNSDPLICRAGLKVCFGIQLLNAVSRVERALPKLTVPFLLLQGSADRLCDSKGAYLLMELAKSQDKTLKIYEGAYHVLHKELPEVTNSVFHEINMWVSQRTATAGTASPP
Excerpt: Monoacylglycerol lipase (MAGL) is a serine hydrolase that catalyses the hydrolysis of monoglycerides into glycerol and fatty acids and links the endocannabinoid and eicosanoid systems through degradation of 2-arachidaoylglycerol to arachidonic acid, a precursor of prostaglandins and other inflammatory mediators. MAGL inhibitors can have anti-nociceptive, anxiolytic, anti-inflammatory and even anti-cancer benefits. The Cayman’s Monoacylglycerol lipase inhibition screening assay kit was used to measure the inhibition of MAGL by generated hydrolysates and the positive control JZL 195 inhibitor. The assay was performed in compliance with the manufacturer’s instructions. MAGL hydrolyses 4-Nitrophenylacetate, resulting in a yellow product, 4-nitrophenol, that has an absorbance between 405–412 nm. The […] of the yellow colour is indicative of MAGL inhibition. MAGL inhibition was calculated using the following Equation:% MAGL inhibition = (corrected 100% initial activity − corrected inhibitor activity)/(corrected 100% initial activity) × 100(2) where corrected 100% initial activity was the absorbance value recorded for wells containing 150 µL 1× assay Buffer, 10 µL of MAGL enzyme and 10 µL of solvent minus the absorbance value recorded for the background well containing 160 µL of 1× Assay Buffer and 10 µL of solvent (1.4% DMSO in water).

[4] = tested on: COX-1; design: method as in PMID 20188172; conditions: known COX-1 selective inhibitors from Chinese herbs; cited from earlier work
[5] = tested on: COX-2; design: method as in PMID 20188172; conditions: known COX-2 selective inhibitors; read-out: COX2- IC50; cited from earlier work
[6] = tested on: LOX-1 expression; design: method as in PMID 30955604; conditions: peptides from amaranth; cited from earlier work
[7] = tested on: nitric oxide (NO) production; design: method as in doi:10.48022/mbl.2109.09005; conditions: peptide from mollusc abalone; cited from earlier work

**Q.** What does the source list for `CC[C@H](C)[C@H](N)C(=O)N[C@@H](C)C(=O)NCC(=O)N[C@@H](Cc1ccccc1)C(=O)N[C@@H](CCC(=O)O)C(=O)N[C@H](C(=O)N[C@@H](Cc1ccccc1)C(=O)N[C@@H](CC(=O)O)C(=O)N[C@@H](Cc1ccccc1)C(=O)N[C@@H](CC(N)=O)C(=O)N[C@@H](CO)C(=O)N[C@@H](CC(C)C)C(=O)N[C@@H](CCC(=O)O)C(=O)N[C@@H](CCC(N)=O)C(=O)N[C@@H](CC(C)C)C(=O)N[C@@H](CS)C(=O)O)[C@@H](C)CC` (H-IAGFEIFDFNSLEQLC-OH)?
**A.** IC50 [1]: 103 µM; inhibition at 1000 µg/mL ([1]; 1 mg/mL): 53.3%; selectivity index ([2]; COX-1 versus COX-2 IC50 of synthesised peptide): 0.52; IC50 [2]: 366 µM; inhibition at 1000 µg/mL [2]: 47.5%

**Q.** With `CC[C@H](C)[C@H](NC(=O)[C@H](CC(C)C)NC(=O)[C@H](C)NC(=O)[C@H](CCC(=O)O)NC(=O)[C@@H]1CCCN1C(=O)[C@H](CC(C)C)NC(=O)CNC(=O)[C@H](CC(C)C)NC(=O)[C@H](C)NC(=O)[C@H](C)NC(=O)[C@@H](NC(=O)[C@H](CC(C)C)NC(=O)[C@H](Cc1ccccc1)NC(=O)[C@@H](NC(=O)[C@H](CS)NC(=O)[C@@H](NC(=O)[C@@H](NC(=O)[C@H](CCC(=O)O)NC(=O)CNC(=O)[C@@H](NC(=O)[C@@H](N)CC(N)=O)C(C)C)C(C)C)C(C)C)[C@@H](C)CC)[C@@H](C)O)C(=O)O` (H-NVGEVVCIFLTAALGLPEALI-OH) as the compound, how does the IC50 ([3]; synthesised peptide) read?
**A.** 6.35 µM

**Q.** What about the inhibition at 500 µg/mL ([3]; synthesised peptide, 0.5 mg/mL) of the same compound?
**A.** 53%

**Q.** Which inhibition at 500 µg/mL ([1]; 0.5 mg/mL) does the source give for `CSCC[C@H](NC(=O)[C@H](Cc1ccccc1)NC(=O)[C@H](CCC(N)=O)NC(=O)[C@H](Cc1ccc(O)cc1)NC(=O)[C@H](C)NC(=O)[C@H](CC(N)=O)NC(=O)[C@H](CC(=O)O)NC(=O)[C@@H](N)CO)C(=O)N[C@@H](CC(C)C)C(=O)N[C@H](C(=O)O)[C@@H](C)O` (H-SDNAYQFMLT-OH) here?
**A.** 53.7%

**Q.** With `CC(=O)O[C@@H]1CC[C@@]2(C)[C@@H](CC[C@]3(C)[C@@H]2C(=O)C=C2[C@@H]4[C@@H](C)[C@H](C)CC[C@]4(C)CC[C@]23C)[C@@]1(C)C(=O)O` [Acetyl-11-keto-β-boswellic acid] as the compound, how does the IC50 [4] read?
**A.** ~10 µM

**Q.** With `O=C(Oc1ccc([N+](=O)[O-])cc1)N1CCN(Cc2cccc(Oc3ccccc3)c2)CC1` [JZL 195, reference compound] as the compound, how does the “% MAGL inhibition” value ([3]; positive control at 4.4 µM) read?
**A.** 98.16%

**Q.** What does the source list for `CC(C)C[C@H](NC(=O)[C@H](C)NC(=O)[C@H](Cc1c[nH]c2ccccc12)NC(=O)[C@@H]1CCCN1C(=O)[C@H](CCCNC(=N)N)NC(=O)[C@H](Cc1c[nH]cn1)NC(=O)[C@H](CC(C)C)NC(=O)[C@@H]1CCCN1C(=O)[C@H](CS)NC(=O)[C@@H](N)CCC(N)=O)C(=O)O` [QCPLHRPWAL] (H-QCPLHRPWAL-OH)?
**A.** % COX-1 inhibition ([1]; concentration not printed with the value): 82.90% (+/−0.54); IC50 [2]: 221 µM; inhibition at 1000 µg/mL [2]: 53.8%

**Q.** For `CCC/C=C1\OC(=O)C2=C1CC[C@H]1[C@H]3C=C4C(=O)O/C(=C\CCC)[C@@]4(CC3)[C@@H]21` [Senkyunolide O], which IC50 [5] is on record?
**A.** 5 µM

**Q.** Which IC50 [4] does the source give for `CC(=O)O[C@@H]1CC[C@@]2(C)[C@@H](CC[C@]3(C)[C@@H]2CC=C2[C@@H]4CC(C)(C)CC[C@]4(C)CC[C@]23C)[C@@]1(C)C(=O)O` [acetyl-α-boswellic acid] here?
**A.** ~10 µM

**Q.** Which IC50 [4] does the source give for `CC(=O)O[C@@H]1CC[C@@]2(C)[C@@H](CC[C@]3(C)[C@@H]2CC=C2[C@@H]4[C@@H](C)[C@H](C)CC[C@]4(C)CC[C@]23C)[C@@]1(C)C(=O)O` [acetyl-β-boswellic acid] here?
**A.** ~10 µM

**Q.** For `C[C@H]1COC2=C1C(=O)C(=O)c1c2ccc2c1CCCC2(C)C` [cryptotanshinone], which IC50 [5] is on record?
**A.** 22 µM

**Q.** With `C[C@H]1[C@H](C)CC[C@]2(C)CC[C@]3(C)C(=CC[C@@H]4[C@@]5(C)CC[C@@H](O)[C@](C)(C(=O)O)[C@@H]5CC[C@]43C)[C@H]12` [β-boswellic acid] as the compound, how does the IC50 [4] read?
**A.** ~10 µM

**Q.** Which “% COX-1 inhibition” value ([1]; 0.5 mg/mL) does the source give for “FDAFLPM [peptide from Irish M. muelleri Alcalase hydrolysate (Code 23), chemically synthesised]” here?
**A.** 34.49%

**Q.** With “HGSEPFGPR [literature anti-inflammatory peptide from amaranth]” as the compound, how does the “effect on LOX-1 expression” value [6] read?
**A.** reduce LOX-1 expression

**Q.** With “PFNEGTFAAS [literature peptide derived from mollusc abalone]” as the compound, how does the “NO IC50” value [7] read?
**A.** 54.07 µg/mL

**Q.** With “RPRYPWRYT [literature anti-inflammatory peptide from amaranth]” as the compound, how does the “effect on LOX-1 expression” value [6] read?
**A.** reduce LOX-1 expression
